From paper PMC9673926, “Nucleotide binding as an allosteric regulatory mechanism for Akkermansia muciniphila β-N-acetylhexosaminidase Am2136” (Gut Microbes, 2022) come the findings set out here.

Common to all, as to experiment: Nucleotide binding affinity by intrinsic fluorescence, mutant
Holding throughout (parameters): The coding region (residue Q20-L756) of Am2136 without signal peptide was based on UniProt; 6XHis (N); made in house; host or cells: E. coli BL21 (DE3)

The target in one assay is T1, Am2136 E649A (Akkermansia muciniphila, UniProt B2UPR7, E649A).
T1 sequence (B2UPR7 20-756 E649A): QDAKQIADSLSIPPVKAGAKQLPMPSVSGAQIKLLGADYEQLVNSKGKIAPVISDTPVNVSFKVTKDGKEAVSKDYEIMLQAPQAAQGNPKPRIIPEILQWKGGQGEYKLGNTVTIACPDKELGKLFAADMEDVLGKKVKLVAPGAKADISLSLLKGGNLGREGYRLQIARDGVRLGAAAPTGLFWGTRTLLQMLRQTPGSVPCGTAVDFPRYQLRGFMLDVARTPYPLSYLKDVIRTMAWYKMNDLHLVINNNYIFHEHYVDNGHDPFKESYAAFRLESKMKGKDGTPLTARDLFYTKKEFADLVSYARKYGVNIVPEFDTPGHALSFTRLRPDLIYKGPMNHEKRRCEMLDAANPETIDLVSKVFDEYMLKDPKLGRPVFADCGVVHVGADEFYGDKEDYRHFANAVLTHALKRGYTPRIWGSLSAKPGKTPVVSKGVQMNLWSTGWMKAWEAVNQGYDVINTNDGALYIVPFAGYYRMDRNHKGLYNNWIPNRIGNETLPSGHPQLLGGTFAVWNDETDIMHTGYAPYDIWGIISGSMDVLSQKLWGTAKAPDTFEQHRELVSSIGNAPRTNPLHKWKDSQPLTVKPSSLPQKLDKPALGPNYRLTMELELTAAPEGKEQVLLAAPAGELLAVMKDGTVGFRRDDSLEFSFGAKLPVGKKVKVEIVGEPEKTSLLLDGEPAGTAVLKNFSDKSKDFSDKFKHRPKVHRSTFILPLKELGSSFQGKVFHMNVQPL
The protocol: (§1) The nucleotide binding ability was determined on Fluorescence Spectrometer Duetta (HORIBA) by measuring the change of peak intensity. The fluorescence was excited at 286 nm and emitted at 336 nm. And the measurement was processed under 400 V voltage with 2.5 nm excitation slit and 5 nm emission slit. The 120 μL reaction mixture contains 0–550 μM nucleotide, 5 μM proteins, 25 mM Tris pH 8.0 and 150 mM NaCl. The sample was incubated at 4°C for 5 min before testing.

In a further assay the target is T2, Am2136 Y550A (Akkermansia muciniphila, UniProt B2UPR7, Y550A).
T2 sequence (B2UPR7 20-756 Y550A): T1 sequence (B2UPR7 20-756 E649A) with Y531A, A630E
The protocol: as §1

In a further assay the target is T3, Am2136 P595A+H597A (Akkermansia muciniphila, UniProt B2UPR7, H597A/P595A).
T3 sequence (B2UPR7 20-756 P595A/H597A): T1 sequence (B2UPR7 20-756 E649A) with P576A, H578A, A630E
As to the method: as §1

The structures appear in SMILES notation. Changes are numbered by the printed parent chain.

For `Nc1nc2c(ncn2[C@@H]2O[C@H](COP(=O)(O)OP(=O)(O)O)[C@@H](O)[C@H]2O)c(=O)[nH]1` [GDP], the Kd was found to be 236 µM at Am2136 E649A, 193 ± 7.36 µM on Am2136 Y550A and 140 ± 4.26 µM at Am2136 P595A+H597A.

Usually Kd stands for a measure of binding affinity in units of concentration.
